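Five concentrations, 48 hours, 96-well plates. GI50 is the concentration that inhibits growth by half. TGI: concentration producing complete growth inhibition.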
Columns and labels:
Assay in all cases: NCI tumour cell line growth inhibition, 48 h
[1] = system: ACHN renal
[2] = system: SW-620 colon
[3] = system: SF-539 CNS
[4] = system: OVCAR-3 ovarian
[5] = system: OVCAR-4 ovarian
[6] = system: SK-MEL-28 melanoma
[7] = system: SF-295 CNS
[8] = system: OVCAR-5 ovarian
[9] = system: M14 melanoma
[10] = system: NCI-H23 lung
[11] = system: A498 renal
[12] = system: EKVX NSCLC
[13] = system: IGROV1 ovarian
[14] = system: NCI-H522 lung
[15] = system: SNB-75 CNS
[16] = system: MDA-MB-435
[17] = system: SNB-19 CNS
[18] = system: TK-10 renal
[19] = system: CCRF-CEM leukemia
[20] = system: HS 578T breast
[21] = system: UACC-257 melanoma
[22] = system: KM12 colon
[23] = system: MALME-3M melanoma
[24] = system: RPMI-8226 leukemia
[25] = system: RXF 393 renal
[26] = system: BT-549 breast

Q: For O=c1c2cc(F)ccc2sc2c(NCCCNCCO)nc3ccccc3c12, which TGI [1] is on record?
A: The TGI was 3030 nM.

Q: And the GI50 [2]?
A: Its GI50 is 1620 nM.

Q: What about the TGI [2] of the same compound?
A: The TGI was 3140 nM.

Q: What about the GI50 [3] of the same compound?
A: Its GI50 is 1740 nM.

Q: And the TGI [3]?
A: The TGI was 3190 nM.

Q: And the GI50 [4]?
A: The GI50 was 1900 nM.

Q: And the TGI [4]?
A: The TGI was 3550 nM.

Q: And the GI50 [5]?
A: Its GI50 is 1920 nM.

Q: And the TGI [5]?
A: The TGI was 4050 nM.

Q: And the GI50 [6]?
A: Its GI50 is 1750 nM.

Q: What about the TGI [6] of the same compound?
A: The TGI was 3250 nM.

Q: And the GI50 [7]?
A: Its GI50 is 1770 nM.

Q: What about the TGI [7] of the same compound?
A: The TGI was 3260 nM.

Q: What about the GI50 [8] of the same compound?
A: The GI50 was 1610 nM.

Q: What about the TGI [8] of the same compound?
A: Its TGI is 3050 nM.

Q: And the GI50 [9]?
A: The GI50 was 1870 nM.

Q: And the TGI [9]?
A: The TGI was 3620 nM.

Q: And the GI50 [10]?
A: Its GI50 is 1720 nM.

Q: What about the TGI [10] of the same compound?
A: The TGI was 3220 nM.

Q: What about the GI50 [11] of the same compound?
A: The GI50 was 1670 nM.

Q: And the TGI [11]?
A: The TGI was 3320 nM.

Q: And the GI50 [12]?
A: The GI50 was 1670 nM.

Q: What about the TGI [12] of the same compound?
A: The TGI was 3470 nM.

Q: What about the GI50 [13] of the same compound?
A: The GI50 was 1430 nM.

Q: And the TGI [13]?
A: Its TGI is 2900 nM.

Q: What about the GI50 [14] of the same compound?
A: Its GI50 is 1870 nM.

Q: What about the TGI [14] of the same compound?
A: The TGI was 3800 nM.

Q: And the GI50 [15]?
A: Its GI50 is 1500 nM.

Q: What about the TGI [15] of the same compound?
A: The TGI was 2960 nM.

Q: And the GI50 [16]?
A: The GI50 was 1790 nM.

Q: What about the TGI [16] of the same compound?
A: Its TGI is 3400 nM.

Q: What about the GI50 [17] of the same compound?
A: Its GI50 is 1660 nM.

Q: What about the TGI [17] of the same compound?
A: The TGI was 3140 nM.

Q: And the GI50 [18]?
A: Its GI50 is 1890 nM.

Q: What about the TGI [18] of the same compound?
A: The TGI was 3530 nM.

Q: And the GI50 [19]?
A: The GI50 was 2020 nM.

Q: And the TGI [19]?
A: Its TGI is 4760 nM.

Q: What about the GI50 [20] of the same compound?
A: The GI50 was 1700 nM.

Q: What about the TGI [20] of the same compound?
A: The TGI was 3740 nM.

Q: And the GI50 [21]?
A: Its GI50 is 1980 nM.

Q: And the TGI [21]?
A: Its TGI is 3940 nM.

Q: What about the GI50 [22] of the same compound?
A: The GI50 was 1840 nM.

Q: What about the TGI [22] of the same compound?
A: The TGI was 3520 nM.

Q: What about the GI50 [23] of the same compound?
A: The GI50 was 1610 nM.

Q: What about the TGI [23] of the same compound?
A: The TGI was 3090 nM.

Q: What about the GI50 [24] of the same compound?
A: Its GI50 is 2080 nM.

Q: And the TGI [24]?
A: Its TGI is 4630 nM.

Q: And the GI50 [25]?
A: The GI50 was 1490 nM.

Q: And the TGI [25]?
A: Its TGI is 2900 nM.

Q: What about the GI50 [26] of the same compound?
A: The GI50 was 8700 nM.

Q: What about the TGI [26] of the same compound?
A: The TGI was 22000 nM.
